The test system of series [1] is Bacillus subtilis. Description: MIC, broth microdilution. In kind it is cell-based. The following applies: Table 4, read-out: Strain MIC B. subtilis. Here is the method:
(§1) Next, Applicants evaluated the antibacterial activities of the ionophores. First, Applicants determined their minimum inhibitory concentration (MIC) in the gram-positive bacterium that causes hospital-acquired infections, Staphylococcus epidermidis.
(§2) Staphylococcus epidermidis ATCC® 12228™, Staphylococcus caprae ATCC® 51549™, Bacillus subtilis ATCC® 6051™, and Bacillus cereus ATCC® 14579™ were grown in cation-adjusted Mueller-Hinton broth (CA-MHB) (catalog no. 90922, Sigma) as per the Clinical and Laboratory Standards Institute guidelines.2 Bacteria were routinely grown at 37° C. under aerobic conditions.
(§3) The MIC assay was performed according to the Clinical and Laboratory Standards Institute protocols.^3 The antibacterial activities of the compounds were measured using the broth microdilution method. Serial dilutions of compounds were prepared in cation-adjusted Müller Hinton Broth. Each dilution (100 μL) was dispensed to each well of a round-bottom plate to obtain final concentrations ranging from 0.07815-40 μM. Bacteria were grown at 37° C. overnight on cation-adjusted Müller Hinton Broth. The bacterial solution was prepared in 0.9% saline and adjusted to obtain an OD600=0.1 using a SpectraMax M5 (Molecular Devices). The resultant suspension was diluted 1:20 with cation-adjusted Müller Hinton Broth. The resulting mixture (10 μL) was added to each well of the plates (approximately 5×10^4 CFU/well), mixed, and incubated at 37° C. for 24 h. The MIC value was determined as the minimum concentration that inhibited the growth of bacteria.
Background: Dilution methods test growth across graded concentrations, often in twofold steps.

Series [2] deals with Staphylococcus caprae. Description: MIC, broth microdilution. In kind it is cell-based. The following applies: Table 4, read-out: Strain MIC S. caprae. On the procedure:
as §1, §2, §3

Series [3] has as its system Bacillus cereus. Description: MIC, broth microdilution. The following applies: Table 4, read-out: Strain MIC B. cereus. In kind it is cell-based. Here is the method:
as §1, §2, §3

Series [4] relates to bacteria vs U2OS cells. Description: Antibacterial selectivity (average molar MIC in bacteria vs EC50 in U2OS cells). In kind it is cell-based.
Series [5] is described as follows: UV/Vis titration, stability constant (logK) with ZnCl2. In kind it is physicochemical. The following applies: UV/Vis titration with ZnCl2, TitrationFit. The text has this:
Applicants validated the design principles by confirming that the silyl group lowered the binding affinity and shielded the hydrophilic pocket. […] [17] […] Applicants confirmed that all compounds bound Zn^II with 1:1 stoichiometry (FIG. 12). […] Applicants superimposed the X-ray structure of the TIPS-containing Zn^II:9 complex with the literature precedented Zn^II:1 and observed significant structural distortion in the Zn^II:9 complex, which could explain the lower logK.
A solution of ligand was prepared in acetonitrile. The starting concentration was chosen to be around 0.10 mM, based on the absorption maximum of the compound. This solution (2.5 mL) was pipetted into a quartz cuvette with a 1-cm optical path length. The titration was performed by the stepwise addition of a 10-mM ZnC12 solution in acetonitrile. The absorption spectra were measured over the range of 250-800 nm. The calculation of the stability constants was accomplished using TitrationFit.1

Series [6] concerns U2OS cells. Description: Zinc imaging assay (DA-ZP1 fluorescence) of ionophore activity in U2OS cells. In kind it is cell-based. The following applies: for ionophore activity (DA-ZP1 fluorescence): U2OS cells, 10 μM Zn(II) and 5 μM compound. From the text: A number of bispicolyl-based Zn^II-chelators were synthesized with increasing size at the ortho-position of phenolic OH by a one-step reductive amination between bispicolyl-amine and commercially available 3-substituted salicylaldehydes. Applicants examined the ionophore activity of bispicolyl analogs with methyl (Me, 2), isopropyl (iPr, 3), and tert-butyl (tBu, 4) substitutions (FIG. 1A). […] [13] The cells were first treated with ZnCl2 and ionophore candidates followed by DA-ZP1 treatment and fluorescence measurement.
Applicants experimentally determined the ionophore activity of these silyl-based compounds using the aforementioned DAZ-P1 assay in U2OS cells.
Applicants also determined metal-ion interference of the silyl-based ionophores with focused efforts on 8. Applicants designed a competition assay wherein Applicants pre-treated equimolar amounts of various metal ions, Mg^II, Ca^II, Mn^II, Fe^II, and Na^I, with 10 μM of Zn^II for 1 hour before treatment with DA-ZP1.
Finally, Applicants compared the activity of the designed compounds against known ionophores (FIGS. 2 and 11). […] [16]
In a 96-well plate, 20,000 U2OS cells were plated per well and cultured for 24 h in the incubator set to 37° C. with 5% CO2. […] The medium containing the compound was removed, and the cells were washed with 3×100 μL of fresh medium, and finally another 100 μL of 2 μM of DA-ZP1 was added to the corresponding cell culture medium containing HCS NuclearMask Blue Stain. The cells were again kept for 1 h in the incubator. The medium containing compound was removed, and the cells were washed with 1×100 μL of PBS and 2×100 μL of fresh medium, and finally, another 100 μL of fresh, dye-free medium was added. The cells were immediately imaged using a high-content fluorescence microscope (Operetta Phenix) in both the DAPI and FITC channels at 20× magnification. Images were analyzed using the Harmony software, and data were plotted using GraphPad Prism 9.

Series [7] concerns U2OS cells. Briefly: U2OS cell viability assay (CellTiter-Glo). In kind it is cell-based. The following applies: Homo sapiens, cell viability, 48 h, 5 μM Zn^II, read-out: U2OS EC50 + 5 μM Zn^II. On the procedure:
Applicants reasoned that limiting extracellular zinc with EDTA would abolish ionophore activity by depleting the available metal ions for membrane transport. […] [24]
U2OS cells were seeded in black 384-well plates at a density of 3,000 cells per well in 25 μL of medium per well. After seeding, the cells were left to adhere overnight. The compounds to be tested were added to the designated culture plates in 25 μL of medium in triplicate with a normalized DMSO concentration (0.05%) in all treatments, and the plates were placed at 37° C. in a humidified atmosphere containing 5% CO2. After 48 h, 40 μl of CellTiter-Glo (Promega) was added to each well and incubated for 30 min, after which the plate luminescence was analyzed in a PerkinElmer EnVision Manager 1.13 (PerkinElmer). The average growth of treated cells was calculated by correcting the values for background luminescence and was subsequently normalized to the average of the two lowest treatments of the compound in question. Data were plotted and fitted to a dose-response curve using GraphPad Prism 9.
A general note: Cellular ATP, detected with luciferase, serves as a proxy for viable cell number.

In series [8] the test system is S. epidermidis, S. caprae, B. subtilis, B. cereus. Description: Average MIC over the four gram-positive strains. In kind it is cell-based. On the procedure: as §1, §3
Setting [9] is: ratio of average molar MIC and U2OS EC50, Table 4.
Setting [10] is: read-out: Average MIC (molar, in brackets).

Converted amounts (≈) assume the structure as drawn. Read-outs that look alike come from different tables or passages of the source.

Usually MIC stands for the lowest concentration found to suppress growth.

Take `CC(C)(C)[Si](C)(C)c1cccc(CN(Cc2ccccn2)Cc2ccccn2)c1O` [Compound 8, 2-((bis(pyridin-2-ylmethyl)amino)methyl)-6-(tert-butyldimethylsilyl)phenol]: the MIC in series [1] came to 4.2 µg/mL (≈ 10 µM); in series [2] it was 1.1 µg/mL (≈ 2.62 µM); in series [3], 4.2 µg/mL (≈ 10 µM); in series [8] (read-out: Average MIC), 3.4 µg/mL; in series [8] (setting [10]), 8.1 µM. Moreover, the antibacterial selectivity in series [4] is 9.4 times; in series [4] (setting [9]) it was 9.4. Moreover, the “logK (Zn^II binding)” value in series [5] came to 7.5. Besides, the “ionophore activity (DA-ZP1 fluorescence)” value in series [6] is “improved ionophore activity”. For the same compound, the “metal-ion interference with ionophore activity (average fluorescence intensity)” value in series [6] (competition: 10 μM Mg^II, Ca^II, Mn^II, Fe^II or Na^I with 10 μM Zn^II and 10 μM compound) is “did not observe significant drops in average fluorescence intensity for most metal ions”. In addition, the CC50 in series [7] stood at 76.5 µM.

For the compound `CC(C)[Si](c1cccc(CN(Cc2ccccn2)Cc2ccccn2)c1O)(C(C)C)C(C)C` [Compound 9, 2-((bis(pyridin-2-ylmethyl)amino)methyl)-6-(triisopropylsilyl)phenol], the MIC came out at 1.2 µg/mL (≈ 2.6 µM) in series [1]; 0.3 µg/mL (≈ 0.65 µM) in series [2]; 1.2 µg/mL (≈ 2.6 µM) in series [3]; 0.98 µg/mL in series [8] (read-out: Average MIC); 2.1 µM in series [8] (setting [10]); 1 µg/mL in series [8] (read-out: average MIC). In addition, the antibacterial selectivity in series [4] worked out at 6.8 times; in series [4] (setting [9]) it was 6.8. Also, the “logK (Zn^II binding)” value in series [5] is given as 6.9. Also, the “ionophore activity (DA-ZP1 fluorescence)” value in series [6] is listed as “improved ionophore activity”. Also, the CC50 in series [7] is 14.2 µM.

The record behind these values is patent publication US20250206704A1, “ENGINEERED IONOPHORES FOR TRANSPORT OF METAL IONS” (The Brigham and Women's Hospital, Inc., priority 2022, published 2025).
